# Source: ChEMBL document CHEMBL3813604, “Two pairs of farnesyl phenolic enantiomers as natural nitric oxide inhibitors from Ganoderma sinense” (Bioorg Med Chem Lett, 2016)
# System: RAW264.7
# Test: Antiinflammatory activity in mouse RAW264.7 cells assessed as inhibition of LPS-induced nitric oxide production after 24 hrs by Griess assay
# Format: functional, cell-based
# Details: RAW264.7, 24 h
row,Compound,IC50
1,CO[C@@]1(c2cc(O)cc(O)c2)C=C(CC/C=C(\CO)CC/C=C(\C)COC(=O)/C=C/c2ccc(O)cc2)C(=O)O1,1510 nM
2,C/C(=C\CC/C(=C/CCC1=C[C@H](c2cc(O)ccc2O)OC1=O)CO)COC(=O)/C=C/c1ccc(O)cc1,1420 nM
3,CO[C@]1(c2cc(O)cc(O)c2)C=C(CC/C=C(\CO)CC/C=C(\C)COC(=O)/C=C/c2ccc(O)cc2)C(=O)O1,2260 nM
4,C[C@]12CCC(=O)C=C1CC[C@@H]1[C@@H]2[C@@H](O)C[C@@]2(C)[C@H]1CC[C@]2(O)C(=O)CO [HYDROCORTISONE],58800 nM
5,C/C(=C\CC/C(=C/CCC1=C[C@@H](c2cc(O)ccc2O)OC1=O)CO)COC(=O)/C=C/c1ccc(O)cc1,1150 nM
